Patent publication US5484778A, “Phthalocyanine photosensitizers for photodynamic therapy and methods for their use” (priority 1993, dated 1996)
“Also recorded” adds a separate entry of the source.

Experiments:
V79 cells [1] = test system: V79 cells
Experimental: V79 cells Chinese hamster lung fibroblasts were cultured using the cell culture methods described above. […] When the filters were dry, the phthalocyanines were extracted into ethanol and the absorption determined at the peak wavelength, usually 668 nm.

L5178Y cells = test: Induction of apoptosis (DNA fragmentation) in L5178Y-R cells (Table 6); format: cell-based, mouse; conditions: for apoptosis (in words): various concentrations and fluences
Experimental: (§1) Mouse lymphoma L5178y-R (hereinafter also referred to as "LY-R") cells were grown in suspension culture as described in Ramakrishnan N., Oleinick, N. L. Clay, M. E., Horng, M. F., Antunez, A. R., and Evans H. H., DNA lesions and DNA degradation in mouse lymphoma L5178Y cells after photodynamic treatment sensitized by chloroaluminum phthalocyanine. Photochem. Photobiol. 50, 373-378, 1989 and Agarwal, M. L., Clay, M. E., Harvey, E. J., Evans, H. H., Antunez, A. R., and Oleinick, N. L. Photodynamic therapy induces rapid cell death by apoptosis in L5178Y mouse lymphoma cells. Cancer Res., 51, 5993-5996, 1991.
(§2) The cells were used while in exponential growth. Stock solutions of either 0.5 or 1 mM of PcIV, PcXII, PcX, PcXVIII were prepared in dimethylformamide unless otherwise indicated and added to the 10 mL medium at a rate of 1 μL per mL. After allowing 18 hours for uptake of the phthalocyanine into the cells, the flasks containing the cultures were placed on a glass exposure tray above a 500-W tungsten-halogen lamp. The exposure tray was fitted with a 600-nm high-pass filter. Flasks were exposed to various fluences of red light (up to 30 kJ/m^2) at a fluence rate of approximately 74 W/m^2). After irradiation, the cells were collected by centrifugation.
(§3) For measurement of clonogenic cell survival, aliquots were plated in medium containing soft agar as described in Ramakrishnan N., Oleinick, N. L. Clay, M. E., Horng, M. F., Antunez, A. R., and Evans H. H., DNA lesions and DNA degradation in mouse lymphoma L5178Y cells after photodynamic treatment sensitized by chloroaluminum phthalocyanine. Photochem. Photobiol. 50, 373-378, 1989. The aliquots were plated in sufficient numbers to produce 50-200 colonies. The dishes were kept in an incubator at 37° C. in an atmosphere of 5% CO2 and 95% air for 10-14 days to allow viable cells to form colonies. Colonies were counted by eye. Controls treated with the phthalocyanine alone had plating efficiencies of ~90%. The plating efficiencies of the treated cells are normalized to the plating efficiencies of control cells in each experiment. For measurement of the induction of apoptosis, DNA was isolated from the treated and control cells 2 hours after photodynamic therapy, subjected to electrophoresis on 1.5% agarose, stained with ethidium bromide, and visualized by UV transillumination, as described in Agarwal et. al. The results are shown in Tables 4, 5 and 6 and in FIG. 3.
Cells were treated with various concentrations of the compounds listed in the table and various light fluences. DNA gels were prepared and examined for the characteristic "ladder" pattern of DNA fragments. For each Pc, the minimum total PDT dose tested (calculated as the product of the minimum phthalocyanine concentration and the minimum fluence) which produced visible DNA fragments is recorded. […] PcXVIII was also added at 0.5 and 1.0 μM.

V79 cells [2] = test: Clonogenicity, killing of V79 cells using photodynamic therapy (Table 3); format: cell-based, Chinese hamster; conditions: for photosensitizing activity, killing V79 cells (in words): discussion of Table 3
Experimental: Using the cell culture methods described above, V79 cells Chinese hamster lung fibroblasts were treated with either 0.5 or 1.0 μM of the phthalocyanines listed in Table 3. About 18 hours thereafter, the cells were irradiated with increasing doses of 675 nm broad band red light from a 500 W tungsten-halogen lamp fitted with a 600 nm high pass filter, to determine the light dosage that would kill 90% of the phthalocyanine treated cells. Where 90% of the cells were not killed, the maximum percent of cells killed were determined, (expressed as % survival) and the related light dosage recorded.

L5178Y-R (LY-R) cells = test: Clonogenic survival of PDT-treated L5178Y-R cells (Tables 4 and 5, FIG. 3); format: cell-based, mouse; conditions: 0.5 μM; for activity relative to PcXII: from Table 5; for LD 90: fluence reducing survival to 10%; for LD50: fluence reducing survival to 50%
Experimental: as §1, §2, §3
In Table 4 each phthalocyanine was present at 0.5 μM, and the normalized plating efficiencies are presented as mean and standard deviation at each fluence tested. […] This relative activity of these four phthalocyanines is the same as obtained from screening in V79 cells.
PcXII when present in the culture medium at 0.5 μM requires less light, that is the lowest fluence, to kill either 50% […] of the cells. PcIV is about 80% as active as PcXII, PcX is 44% as active as PcXII and PcXVIII is 22% as active as PcXII.

RIF-1 tumors = test: PDT of RIF-1 implanted tumors (Table 7); format: in vivo, C3H/HeN mice; conditions: for effect on tumor volume / growth (in words): 1 mg/kg; for Doubling Time of Initial Tumor Volume after PDT: 1 mg/kg in corn oil, 675 nm, 135 J/cm^2
Experimental: The relative effectiveness at reducing tumor volume of selected phthalocyanine compounds at a given dosage was compared in vivo. RIF-1, i.e., radiation-induced fibrosarcoma, tumors were implanted into the backs of C3H/HeN mice. One tumor was implanted per mouse. Each of the phthalocyanine compounds listed in Table 7 was sonicated and vortexed in corn oil to produce a suspension. When the tumors reached […] in diameter and 2-3 mm in thickness, each mouse received 1 mg/kg in 0.1 ml of the corn oil, of the phthalocyanine suspension. For comparison, select mice received a conventional photosensitizer; either 5 mg/kg of chloroaluminum phthalocyanine tetrasulfonate, herein also referred to as "AlPcTS" in phosphate buffered saline or 5 mg/kg of Photofrin®-II in 5% dextrose. Twenty-four hours after the photosensitizers were administered, the tumors were irradiated with visible radiation delivered by an argon-pumped dye laser. The mice that received a phthalocyanine photosensitizer received light having a wavelength of 675 nm and the mice that received the Photofrin® II photosensitizer received light having a wavelength of 630 nm. Each tumor received 135 J/cm^2 of radiation. Tumor size was measured every day using calipers. The initial tumor volume was 50±10 mm^3. Tumor volume was calculated according to the hemiellipsoid model by the formula: [formula] Where l is length Where W is width

[3] = 0.5 μM, 18 h, light dose killing 90% of cells

Row | Compound | Uptake (from Table 2) (V79 cells [1]) | Uptake into V79 cells, composite value (V79 cells [1]) | uptake by V79 cells (in words) (V79 cells [1]) | Minimum Demonstrated Condition to induce apoptosis: C × F (L5178Y cells; 0.5 μM) | Minimum Demonstrated Condition to induce apoptosis: Fluence (L5178Y cells; 0.5 μM) | activity relative to PcXII (L5178Y-R (LY-R) cells) | LD 90 (L5178Y-R (LY-R) cells) | LD50 (L5178Y-R (LY-R) cells) | Minimum Demonstrated Condition to induce apoptosis: C × F (L5178Y cells; 1.0 μM) | Minimum Demonstrated Condition to induce apoptosis: Fluence (L5178Y cells; 1.0 μM) | apoptosis (in words) (L5178Y cells) | LD 90 (V79 cells [2]; [3]) | Doubling Time of Initial Tumor Volume after PDT (RIF-1 tumors) | also measured
1 | C[Si](C)(CCCCN)O[Si]1(O[Si](C)(C)CCCCN)n2c3c4ccccc4c2N=C2N=C(N=c4c5ccccc5c(n41)=NC1=NC(=N3)c3ccccc31)c1ccccc12 [Compound VII, SiPc[OSi(CH3)2 (CH2)4 NH2]2] | 0.2 n Moles/10^6 cells/μM | 0.2 n Moles/10^6 cells/μM | poor uptake | 1.5 μm × kJ/m^2 | 3.0 kJ/m^2 |  |  |  |  |  |  |  |  | LD 90 (V79 cells [2]; 0.5 μM, preplated data only): 4 kJ/m^2; photosensitizing activity, killing V79 cells (in words) (V79 cells [2]; listed as PcVII): most active at killing V79 cells; also recorded: one of the better photosensitizers
2 | CCN(CCC[Si](C)(C)O[Si]1(O)n2c3c4ccccc4c2N=C2N=C(N=c4c5ccccc5c(n41)=NC1=NC(=N3)c3ccccc31)c1ccccc12)CCN(C)C (centres unmarked) [Compound X, HOSiPcOSi(CH3)2 (CH2)3 N(CH2 CH3)(CH2)2 N(CH3)2] | 0.7 n Moles/10^6 cells/μM | 0.7 n Moles/10^6 cells/μM |  | 3.0 μm × kJ/m^2 | 6.0 kJ/m^2 | 44% | 4.19 kJ/m^2 | 2.38 kJ/m^2 | 3.0 μm × kJ/m^2 | 3.0 kJ/m^2 | the same minimum value for the C×F product was obtained in both cases | 7 kJ/m^2 |  | photosensitizer activity in LY-R cells (in words) (L5178Y-R (LY-R) cells): active photosensitizers
3 | CCN(CCC[Si](C)(C)O[Si]1(O[Si](C)(C)CCCN(CC)CCN(C)C)n2c3c4ccccc4c2N=C2N=C(N=c4c5ccccc5c(n41)=NC1=NC(=N3)c3ccccc31)c1ccccc12)CCN(C)C [Compound XVIII, SiPc[OSi(CH3)2 (CH2)3 N(CH2 CH3)(CH2)2 N(CH3)2]2] |  |  |  | 5.0 μm × kJ/m^2 | 10.0 kJ/m^2 | 22% | 7.81 kJ/m^2 | 5.00 kJ/m^2 | 3.0 μm × kJ/m^2 | 3.0 kJ/m^2 | minimum value of C×F differed only slightly for the two conditions |  | 12 days | effect on tumor volume / growth (in words) (RIF-1 tumors): particularly effective in reducing tumor volume; photosensitizer activity in LY-R cells (in words) (L5178Y-R (LY-R) cells; listed as PcXVIII): active photosensitizers; also recorded: least active; LD 90 (V79 cells [2]; 1 μM, 18 h): 7 kJ/m^2; photosensitizing activity, killing V79 cells (in words) (V79 cells [2]): good activity
4 | CN1CCN(CCC[Si](C)(C)O[Si]2(O)n3c4c5ccccc5c3N=C3N=C(N=c5c6ccccc6c(n52)=NC2=NC(=N4)c4ccccc42)c2ccccc23)CC1 (centres unmarked) [Compound XXVIII, HOSiPcOSi(CH3)2 (CH2)3 NC4 H8 NCH3] |  |  |  |  |  |  |  |  |  |  |  | 1.8 kJ/m^2 | 24 days | effect on tumor volume / growth (in words) (RIF-1 tumors; listed as Pc XXVIII): significantly impair the growth of the tumors; effect on tumor volume / growth (in words) (RIF-1 tumors; listed as PcXXVIII): particularly effective in reducing tumor volume; Minimum Demonstrated Condition to induce apoptosis: C × F (L5178Y cells; 0.3 μM): 0.9 μm × kJ/m^2; Minimum Demonstrated Condition to induce apoptosis: Fluence (L5178Y cells; 0.3 μM): 3.0 kJ/m^2; photosensitizing activity, killing V79 cells (in words) (V79 cells [2]; listed as Pc XXVIII): photodynamic killing efficiency is superior to PcXII; photosensitizing activity, killing V79 cells (in words) (V79 cells [2]; listed as PcXXVIII): most active at killing V79 cells; also recorded: highest activity in killing V79 cells of all of the phthalocyanines
5 | HOSiPcOSi(CH3)2 (CH2)3 N[(CH2)3 N(CH3)2 ]2 [Compound XXVII] | 1.5 n Moles/10^6 cells/μM | 1.5 n Moles/10^6 cells/μM | taken up particulary well |  |  |  |  |  |  |  |  | 6.8 kJ/m^2 |  | 
